Laboratory results reported in paper PMC10046369, “Low-Affinity/High-Selectivity Dopamine Transport Inhibition Sufficient to Rescue Cognitive Functions in the Aging Rat” (Biomolecules, 2023).

How the values were obtained:
Assay in all cases: biochemical
Design in all cases: KINOMEscan competition binding panel, per cent of control
Details in all cases: read-out: %Ctrl @ 2800nM
[1] = molecular target: T1, CDK4-cyclinD3 (Homo sapiens, UniProt P11802)
T1 construct: cyclinD3
Method in brief: (§1)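 Values are expressed as percent of control, calculated as ((test − positive control)/(negative control − positive control)) × 100, so lower numbers mean stronger hits. Binding was measured by KINOMEscan competition assay in a 450-kinase human panel including disease mutants, using the contractor's validated protocol.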

[2] = molecular target: MUSK (Homo sapiens, UniProt O15146)
Sequence of MUSK (O15146 whole entry): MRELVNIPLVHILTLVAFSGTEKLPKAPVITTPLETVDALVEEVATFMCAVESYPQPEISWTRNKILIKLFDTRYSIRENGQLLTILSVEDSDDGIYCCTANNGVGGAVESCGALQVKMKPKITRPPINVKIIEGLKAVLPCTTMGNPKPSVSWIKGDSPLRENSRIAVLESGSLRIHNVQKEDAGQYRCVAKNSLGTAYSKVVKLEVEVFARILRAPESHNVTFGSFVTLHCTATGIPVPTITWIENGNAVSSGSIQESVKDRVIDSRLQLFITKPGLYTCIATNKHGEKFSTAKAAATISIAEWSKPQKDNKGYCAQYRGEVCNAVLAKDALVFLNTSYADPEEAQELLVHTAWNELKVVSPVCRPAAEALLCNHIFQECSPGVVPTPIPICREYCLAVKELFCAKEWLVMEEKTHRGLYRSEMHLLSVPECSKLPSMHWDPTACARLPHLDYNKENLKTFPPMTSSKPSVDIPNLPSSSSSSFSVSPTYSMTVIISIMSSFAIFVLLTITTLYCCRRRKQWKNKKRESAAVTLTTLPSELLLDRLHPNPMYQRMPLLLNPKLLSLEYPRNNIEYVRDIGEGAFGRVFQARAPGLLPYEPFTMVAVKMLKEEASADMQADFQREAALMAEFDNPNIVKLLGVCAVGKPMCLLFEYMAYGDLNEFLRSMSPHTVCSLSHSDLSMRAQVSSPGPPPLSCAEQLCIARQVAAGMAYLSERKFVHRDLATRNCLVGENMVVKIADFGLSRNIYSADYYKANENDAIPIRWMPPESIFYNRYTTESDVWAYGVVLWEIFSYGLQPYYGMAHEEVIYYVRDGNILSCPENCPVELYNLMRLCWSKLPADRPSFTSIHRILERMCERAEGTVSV
Method in brief: as §1

[3] = molecular target: NEK10 (Homo sapiens, UniProt Q6ZWH5)
Method in brief: as §1

[4] = molecular target: LCK (Homo sapiens, UniProt P06239)
Method in brief: as §1

[5] = molecular target: T2, BIKE (Homo sapiens, UniProt Q9NSY1)
T2 construct: gene BMP2K
Method in brief: as §1

[6] = molecular target: MAP3K15 (Homo sapiens, UniProt Q6ZN16)
Method in brief: as §1

[7] = molecular target: T3, MEK2 (Homo sapiens, UniProt P36507)
T3 construct: gene MAP2K2
T3 sequence (P36507 whole entry): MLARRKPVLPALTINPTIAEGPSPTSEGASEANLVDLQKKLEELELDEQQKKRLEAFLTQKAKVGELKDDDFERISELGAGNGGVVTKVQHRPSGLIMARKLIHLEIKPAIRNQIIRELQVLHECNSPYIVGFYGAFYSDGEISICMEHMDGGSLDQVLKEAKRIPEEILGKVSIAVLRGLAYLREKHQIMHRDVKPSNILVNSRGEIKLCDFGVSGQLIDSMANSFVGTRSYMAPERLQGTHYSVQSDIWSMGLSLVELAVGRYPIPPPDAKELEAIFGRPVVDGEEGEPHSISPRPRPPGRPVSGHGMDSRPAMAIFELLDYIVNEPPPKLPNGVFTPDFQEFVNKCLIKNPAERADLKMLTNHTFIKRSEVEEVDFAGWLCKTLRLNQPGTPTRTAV
Method in brief: as §1

[8] = molecular target: CAMK2B (Homo sapiens, UniProt Q13554)
Method in brief: as §1

[9] = molecular target: SLK (Homo sapiens, UniProt Q9H2G2)
Method in brief: as §1

[10] = molecular target: EPHB3 (Homo sapiens, UniProt P54753)
Sequence of EPHB3 (P54753 whole entry): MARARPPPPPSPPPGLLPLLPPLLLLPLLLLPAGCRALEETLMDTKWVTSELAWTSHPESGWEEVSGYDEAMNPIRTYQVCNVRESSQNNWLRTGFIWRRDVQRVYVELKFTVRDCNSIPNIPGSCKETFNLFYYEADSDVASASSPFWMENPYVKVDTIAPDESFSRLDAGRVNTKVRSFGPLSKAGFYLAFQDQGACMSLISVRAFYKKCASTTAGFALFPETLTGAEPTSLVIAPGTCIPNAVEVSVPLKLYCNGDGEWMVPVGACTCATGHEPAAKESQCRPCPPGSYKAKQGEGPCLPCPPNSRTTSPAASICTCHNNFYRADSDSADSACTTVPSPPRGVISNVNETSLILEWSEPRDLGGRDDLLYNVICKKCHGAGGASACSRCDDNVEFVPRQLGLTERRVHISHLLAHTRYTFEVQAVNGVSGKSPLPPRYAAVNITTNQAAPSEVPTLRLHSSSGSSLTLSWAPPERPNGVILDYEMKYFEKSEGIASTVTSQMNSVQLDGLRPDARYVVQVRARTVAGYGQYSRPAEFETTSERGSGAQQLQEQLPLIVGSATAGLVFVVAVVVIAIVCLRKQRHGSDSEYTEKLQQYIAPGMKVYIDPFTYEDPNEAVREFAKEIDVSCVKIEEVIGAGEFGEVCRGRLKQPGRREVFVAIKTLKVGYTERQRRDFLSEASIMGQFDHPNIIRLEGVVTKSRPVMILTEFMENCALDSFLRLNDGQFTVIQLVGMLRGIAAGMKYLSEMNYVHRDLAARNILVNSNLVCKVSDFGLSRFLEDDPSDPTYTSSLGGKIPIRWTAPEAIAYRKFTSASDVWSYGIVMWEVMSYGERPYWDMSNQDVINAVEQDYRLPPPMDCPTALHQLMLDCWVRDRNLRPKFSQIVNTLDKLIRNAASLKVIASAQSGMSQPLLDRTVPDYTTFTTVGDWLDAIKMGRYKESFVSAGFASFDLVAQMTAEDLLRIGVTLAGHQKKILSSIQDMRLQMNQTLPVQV
Method in brief: as §1

[11] = molecular target: MAK (Homo sapiens, UniProt P20794)
Sequence of MAK (P20794 whole entry): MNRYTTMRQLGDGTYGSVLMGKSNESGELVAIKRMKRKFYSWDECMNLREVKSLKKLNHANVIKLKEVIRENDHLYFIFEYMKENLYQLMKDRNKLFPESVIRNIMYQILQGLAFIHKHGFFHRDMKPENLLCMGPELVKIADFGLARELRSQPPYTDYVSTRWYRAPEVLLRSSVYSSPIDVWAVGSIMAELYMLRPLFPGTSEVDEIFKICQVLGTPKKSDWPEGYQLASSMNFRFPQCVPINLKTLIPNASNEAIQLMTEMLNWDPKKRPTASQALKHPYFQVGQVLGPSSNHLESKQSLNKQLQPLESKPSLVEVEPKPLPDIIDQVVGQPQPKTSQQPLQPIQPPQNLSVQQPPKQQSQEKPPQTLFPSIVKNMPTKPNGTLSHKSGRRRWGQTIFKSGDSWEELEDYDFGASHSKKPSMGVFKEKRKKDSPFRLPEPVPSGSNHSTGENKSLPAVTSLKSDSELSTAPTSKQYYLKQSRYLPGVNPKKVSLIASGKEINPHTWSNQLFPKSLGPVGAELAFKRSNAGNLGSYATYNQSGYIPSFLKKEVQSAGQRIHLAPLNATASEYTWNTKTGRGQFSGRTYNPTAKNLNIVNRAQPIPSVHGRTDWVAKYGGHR
Method in brief: as §1

[12] = molecular target: GSK3A (Homo sapiens, UniProt P49840)
Method in brief: as §1

[13] = molecular target: DYRK1A (Homo sapiens, UniProt Q13627)
Method in brief: as §1

[14] = molecular target: T4, JAK3(JH1domain-catalytic) (Homo sapiens, UniProt P52333)
T4 construct: JH1domain-catalytic
T4 sequence (P52333 whole entry): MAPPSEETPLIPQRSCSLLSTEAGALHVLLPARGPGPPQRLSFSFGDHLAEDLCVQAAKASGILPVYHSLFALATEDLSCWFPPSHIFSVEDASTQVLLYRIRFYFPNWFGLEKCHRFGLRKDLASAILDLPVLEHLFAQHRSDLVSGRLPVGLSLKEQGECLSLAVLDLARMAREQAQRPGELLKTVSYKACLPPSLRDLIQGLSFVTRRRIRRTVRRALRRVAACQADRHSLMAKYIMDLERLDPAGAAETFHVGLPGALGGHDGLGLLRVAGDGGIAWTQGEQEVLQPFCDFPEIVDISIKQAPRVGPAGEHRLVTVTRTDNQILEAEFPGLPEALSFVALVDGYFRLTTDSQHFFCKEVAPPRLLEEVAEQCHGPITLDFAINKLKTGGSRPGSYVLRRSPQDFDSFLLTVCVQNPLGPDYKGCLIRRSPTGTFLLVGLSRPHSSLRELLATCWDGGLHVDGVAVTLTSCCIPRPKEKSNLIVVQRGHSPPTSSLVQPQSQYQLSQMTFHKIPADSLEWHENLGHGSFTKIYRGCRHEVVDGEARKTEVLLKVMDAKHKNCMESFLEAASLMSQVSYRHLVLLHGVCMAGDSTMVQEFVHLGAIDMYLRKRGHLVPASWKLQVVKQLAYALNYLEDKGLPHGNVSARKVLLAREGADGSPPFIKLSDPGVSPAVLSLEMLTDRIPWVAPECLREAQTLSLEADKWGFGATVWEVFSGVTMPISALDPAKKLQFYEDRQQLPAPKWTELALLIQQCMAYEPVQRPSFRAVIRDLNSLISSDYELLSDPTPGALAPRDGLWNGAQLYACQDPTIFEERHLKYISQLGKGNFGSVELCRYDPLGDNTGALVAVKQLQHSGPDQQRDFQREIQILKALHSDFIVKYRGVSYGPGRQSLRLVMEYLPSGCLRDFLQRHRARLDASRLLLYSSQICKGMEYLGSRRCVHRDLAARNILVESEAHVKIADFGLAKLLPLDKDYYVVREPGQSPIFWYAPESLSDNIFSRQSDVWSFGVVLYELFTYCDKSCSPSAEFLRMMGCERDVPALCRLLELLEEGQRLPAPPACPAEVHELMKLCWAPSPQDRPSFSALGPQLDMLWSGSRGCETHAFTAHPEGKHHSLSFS
Method in brief: as §1

[15] = molecular target: KIT(V559D,T670I) (Homo sapiens, UniProt P10721, T670I/V559D)
Method in brief: as §1

[16] = molecular target: T5, TIE2 (Homo sapiens, UniProt Q02763)
T5 construct: gene TEK
Method in brief: as §1

[17] = molecular target: T6, ABL1(H396P)-phosphorylated (Homo sapiens, UniProt P00519, H396P)
T6 construct: phosphorylated
Method in brief: as §1

[18] = molecular target: EPHA5 (Homo sapiens, UniProt P54756)
Method in brief: as §1

[19] = molecular target: FLT3(D835V) (Homo sapiens, UniProt P36888, D835V)
Method in brief: as §1

[20] = molecular target: PRKCD (Homo sapiens, UniProt Q05655)
Method in brief: as §1

[21] = molecular target: T7, RSK2(Kin.Dom.2-C-terminal) (Homo sapiens, UniProt P51812)
T7 construct: gene RPS6KA3; Kin.Dom.2-C-terminal
Method in brief: as §1

[22] = molecular target: T8, DCAMKL3 (Homo sapiens, UniProt Q9C098)
T8 construct: gene DCLK3
Method in brief: as §1

[23] = molecular target: TEC (Homo sapiens, UniProt P42680)
Method in brief: as §1

[24] = molecular target: BRAF(V600E) (Homo sapiens, UniProt P15056, V600E)
Method in brief: as §1

[25] = molecular target: ERBB4 (Homo sapiens, UniProt Q15303)
Method in brief: as §1

[26] = molecular target: GRK7 (Homo sapiens, UniProt Q8WTQ7)
Method in brief: as §1

T1 sequence (P11802 whole entry): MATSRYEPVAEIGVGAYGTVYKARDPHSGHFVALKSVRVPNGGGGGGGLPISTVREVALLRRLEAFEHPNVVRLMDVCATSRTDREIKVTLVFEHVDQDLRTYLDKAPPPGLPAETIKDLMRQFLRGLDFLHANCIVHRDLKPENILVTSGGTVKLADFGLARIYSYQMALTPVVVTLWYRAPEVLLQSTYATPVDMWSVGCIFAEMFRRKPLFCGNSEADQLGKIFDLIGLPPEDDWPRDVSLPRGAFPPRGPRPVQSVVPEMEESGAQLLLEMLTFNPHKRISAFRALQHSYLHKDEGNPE
T1 sequence (P30281 whole entry partner): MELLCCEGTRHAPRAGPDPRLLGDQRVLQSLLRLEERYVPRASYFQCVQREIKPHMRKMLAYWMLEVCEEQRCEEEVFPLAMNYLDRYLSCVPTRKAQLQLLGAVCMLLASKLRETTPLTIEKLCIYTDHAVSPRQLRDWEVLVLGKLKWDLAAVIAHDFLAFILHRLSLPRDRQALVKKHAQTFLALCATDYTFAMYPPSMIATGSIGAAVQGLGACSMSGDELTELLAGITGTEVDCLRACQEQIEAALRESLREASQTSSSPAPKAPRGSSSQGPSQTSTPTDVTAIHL

## [O-][S@@+](Cc1cncs1)C(c1ccccc1)c1ccccc1 [S-CE-123, (S)-5-((Benzhydrylsulfinyl)Methyl)Thiazole]
[1]
  remaining binding at 2.8 µM: 85%
[2]
  remaining binding at 2.8 µM: 100%
[3]
  remaining binding at 2.8 µM: 100%
[4]
  remaining binding at 2.8 µM: 100%
[5]
  remaining binding at 2.8 µM: 97%
[6]
  remaining binding at 2.8 µM: 84%
[7]
  remaining binding at 2.8 µM: 93%
[8]
  remaining binding at 2.8 µM: 87%
[9]
  remaining binding at 2.8 µM: 100%
[10]
  remaining binding at 2.8 µM: 100%
[11]
  remaining binding at 2.8 µM: 94%
[12]
  remaining binding at 2.8 µM: 99%
[13]
  remaining binding at 2.8 µM: 96%
[14]
  remaining binding at 2.8 µM: 100%
[15]
  remaining binding at 2.8 µM: 83%
[16]
  remaining binding at 2.8 µM: 100%
[17]
  remaining binding at 2.8 µM: 90%
[18]
  remaining binding at 2.8 µM: 86%
[19]
  remaining binding at 2.8 µM: 100%
[20]
  remaining binding at 2.8 µM: 89%
[21]
  remaining binding at 2.8 µM: 96%
[22]
  remaining binding at 2.8 µM: 96%
[23]
  remaining binding at 2.8 µM: 100%
[24]
  remaining binding at 2.8 µM: 100%
[25]
  remaining binding at 2.8 µM: 96%
[26]
  remaining binding at 2.8 µM: 90%
